Measured values as given in PubChem BioAssay (NCI).
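Each compound was tested at five concentrations against cells in 96-well plates for 48 hours. TGI denotes the concentration required for complete inhibition of growth.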

Assays:
Test in all cases: NCI-60 cell line screen, 48 h
[1] = system: SW-620 colon
[2] = system: HL-60(TB) leukemia
[3] = system: UACC-257 melanoma
[4] = system: TK-10 renal
[5] = system: MDA-N
[6] = system: 786-0 renal
[7] = system: K-562 leukemia
[8] = system: HOP-92 NSCLC
[9] = system: T-47D breast
[10] = system: HCT-15 colon
[11] = system: MALME-3M melanoma
[12] = system: MCF7 breast
[13] = system: HT29 colon
[14] = system: SN12C renal
[15] = system: OVCAR-8 ovarian
[16] = system: SR leukemia
[17] = system: HOP-62 NSCLC
[18] = system: SK-MEL-28 melanoma
[19] = system: DU-145 prostate
[20] = system: CCRF-CEM leukemia
[21] = system: SK-MEL-5 melanoma
[22] = system: UACC-62 melanoma
[23] = system: RPMI-8226 leukemia
[24] = system: RXF 393 renal
[25] = system: CAKI-1 renal
[26] = system: MOLT-4 leukemia
[27] = system: MDA-MB-435
[28] = system: SF-268 CNS
[29] = system: KM12 colon
[30] = system: IGROV1 ovarian
[31] = system: SK-OV-3 ovarian
[32] = system: HCC-2998 colon
[33] = system: OVCAR-4 ovarian
[34] = system: A549 NSCLC
[35] = system: EKVX NSCLC
[36] = system: SF-295 CNS
[37] = system: MDA-MB-231 breast
[38] = system: SNB-75 CNS
[39] = system: COLO 205 colon
[40] = system: NCI-H23 lung
[41] = system: HS 578T breast
[42] = system: SK-MEL-2 melanoma
[43] = system: NCI-H522 lung
[44] = system: NCI-H226 lung
[45] = system: SNB-19 CNS
[46] = system: LOX IMVI melanoma
[47] = system: UO-31 renal
[48] = system: HCT-116 colon
[49] = system: M14 melanoma
[50] = system: SF-539 CNS
[51] = system: NCI/ADR-RES ovarian
[52] = system: NCI-H460 lung
[53] = system: BT-549 breast
[54] = system: OVCAR-3 ovarian
[55] = system: A498 renal
[56] = system: OVCAR-5 ovarian
[57] = system: PC-3 prostate
[58] = system: ACHN renal
[59] = system: U251 CNS

CCN1CCNc2c3cc(OC)ccc3nc3c([N+](=O)[O-])ccc1c23
TGI [1]: > 10 µM | TGI [2]: 2.37 µM | TGI [3]: 3.7 µM | TGI [4]: > 10 µM | TGI [5]: 2.1 µM | TGI [6]: 9.61 µM | TGI [7]: > 10 µM | TGI [8]: 4.57 µM | TGI [9]: > 10 µM | TGI [10]: 4.29 µM | TGI [11]: 2.29 µM | TGI [12]: 6.51 µM | TGI [13]: > 10 µM | TGI [14]: 5.74 µM | TGI [15]: > 10 µM | TGI [16]: 1.16 µM | TGI [17]: 3.83 µM | TGI [18]: 5.93 µM | TGI [19]: > 10 µM | TGI [20]: 3.22 µM | TGI [21]: 2.53 µM | TGI [22]: 4.58 µM | TGI [23]: 3.25 µM | TGI [24]: 2.01 µM | TGI [25]: > 10 µM | TGI [26]: 1.34 µM | TGI [27]: 2.2 µM | TGI [28]: > 10 µM | TGI [29]: 3.42 µM | TGI [30]: > 10 µM | TGI [31]: > 10 µM | TGI [32]: 2.14 µM | TGI [33]: 4.33 µM | TGI [34]: > 10 µM | TGI [35]: 6.13 µM | TGI [36]: 5.55 µM | TGI [37]: 4.56 µM | TGI [38]: 4.38 µM | TGI [39]: 5.39 µM | TGI [40]: 5.46 µM

Cc1cc(O)c(C(C)C)cc1N=Cc1ccccc1O
TGI [41]: > 46.4 µM | TGI [1]: > 20.4 µM | TGI [2]: 1.89 µM | TGI [3]: 24.4 µM | TGI [4]: 26.9 µM | TGI [5]: 17 µM | TGI [6]: 26.3 µM | TGI [7]: > 22.3 µM | TGI [8]: 1.82 µM | TGI [42]: 25.4 µM | TGI [43]: 17.2 µM | TGI [10]: > 59.5 µM | TGI [44]: 20.4 µM | TGI [45]: 36.5 µM | TGI [11]: 28.4 µM | TGI [12]: 78.9 µM | TGI [13]: > 74 µM | TGI [46]: > 84.3 µM | TGI [47]: 33.7 µM | TGI [48]: 13.5 µM | TGI [49]: 31.4 µM | TGI [50]: 49.3 µM | TGI [14]: 12.2 µM | TGI [15]: > 29.6 µM | TGI [17]: 26.1 µM | TGI [51]: > 67 µM | TGI [18]: 31.4 µM | TGI [52]: 24.6 µM | TGI [19]: 17.4 µM | TGI [20]: 0.0897 µM | TGI [53]: 22 µM | TGI [21]: 18.8 µM | TGI [22]: 21.7 µM | TGI [24]: 2.64 µM | TGI [25]: 25.4 µM | TGI [27]: 4.37 µM | TGI [28]: 21.4 µM | TGI [29]: 14 µM | TGI [54]: 9.7 µM | TGI [55]: 66.2 µM | TGI [30]: 22.4 µM | TGI [56]: 41.2 µM | TGI [31]: 28.8 µM | TGI [32]: 14.7 µM | TGI [57]: 22.4 µM | TGI [33]: 9.66 µM | TGI [34]: 43 µM | TGI [35]: 26.8 µM | TGI [36]: 26.6 µM | TGI [37]: 3.59 µM | TGI [58]: 23.9 µM | TGI [39]: 42.3 µM | TGI [59]: 14.6 µM | TGI [40]: 37.9 µM
